What was measured:
hnkd = assay: Real Time RT-PCR in SW480 cells, hnkd; format: cell-based, human; conditions: 25 μM; for ΔCT hnkd: relative to β-actin
Procedure: (§1) The RNeasy Midi Kit (Qiagen) was used for RNA extraction and Real Time RT-PCR was performed according to the protocol provided with the SYBR Green PCR Master Mix Kit (Perkin Elmer Biosystems, Shelton, Conn.). The primers used for cyclin D1, axin2, hnkd, c-myc, c-jun, and fra-1 amplifications were: cyclin D1 forward primer:5′-[…]-CCTGCTG-3′ (SEQ ID NO: 32) reverse primer: 5′-[…]-3′ (SEQ ID NO: 33) leading to a product size of approximately 300 bp; axin2 forward primer: 5′-[…] GGAAA-CT-3′ (SEQ ID NO: 34) and reverse primer: 5′-[…]-GAGA-3′ (SEQ ID NO: 35); hnkd forward primer: 5′-[…] TTGCGT-3′ (SEQ ID NO: 36) and the reverse primer: 5′-[…] ACGT-3′ (SEQ ID NO: 37); c-myc forward primer: 5′-GAA-[…] CTGC-3′ (SEQ ID NO: 38) and reverse primer: 5′-[…]-G-3′ (SEQ ID NO: 39); c-jun forward primer: 5′-[…]-3′ (SEQ ID NO: 40) and reverse primer: 5′-[…]-3′ (SEQ ID NO: 41); fra-1 forward primer: 5′-ACC-[…]-[…]-3′ (SEQ ID NO: 42) and reverse primer: 5′-[…]-TT-3′ (SEQ ID NO: 43). β-actin was used for normalization. […]
(§2) 1 μg of mRNA, for each time point, was subjected to Real Time RT-PCR. Expression level of endogenous cyclin D1, c-myc, fibronectin, hnkd, axin2, c-jun, and BMP-4 were measured relative to β-actin. Quantitation of The ΔCycle of Threshold (CT) values was determined by subtracting the average values of each set by the corresponding average values obtained for β-actin. […]
(§3) The cyclin D1 gene is inappropriately expressed in many different tumor types, and is known to be a direct target of the Wnt/β-catenin pathway (Shtutman et al., “The cyclin D1 gene is a target of the beta-catenin/LEF-1 pathway,” Proc. Natl. Acad. Sci. USA 96:5522-27 (1999); Tetsu et al., “Beta-catenin regulates expression of cyclin D1 in colon carcinoma cells,” Nature 398:422-26 (1999)). […] Expression level of endogenous cyclin D1, c-myc, fibronectin, hnkd, axin2, c-jun, and BMP-4 were measured relative to β-actin. Quantitation of The ΔCycle of Threshold (CT) values was determined by subtracting the average values of each set by the corresponding average values obtained for β-actin. […]

CBP (1-111) = biological target: T1, CBP (1-111) (Mus musculus, UniProt P45481); assay: Pull-down of CBP deletion constructs on COMPOUND 2 coated beads, competition with excess COMPOUND 1; format: binding; conditions: CBP (1-111), (1-211), (1-351) in SW480 lysates, 150 μM COMPOUND 1
T1 construct: 6xHis (C); HSV tag (C); expressed in transfected cells

c-myc = assay: Real Time RT-PCR in SW480 cells, c-myc; format: cell-based, human; conditions: 25 μM; for ΔCT c-myc: relative to β-actin
Procedure: as §1, §2, §3

T1 sequence (P45481 1-110): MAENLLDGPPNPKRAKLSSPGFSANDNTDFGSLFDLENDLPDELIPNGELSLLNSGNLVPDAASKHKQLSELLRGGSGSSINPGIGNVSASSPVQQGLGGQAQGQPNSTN

O=C1C(Cc2ccc(O)cc2)N2C(=O)CCN(C(=O)NCc3ccccc3)C2CN1Cc1cccc2ccccc12 (stereo not shown) [COMPOUND 1]
mRNA hnkd (direction) (hnkd): ↓ | ΔCT hnkd (hnkd; 4 hours): 0.3 | ΔCT hnkd (hnkd; 8 hours): 1.0 | Competition of CBP fragment binding to COMPOUND 2 beads by excess COMPOUND 1 (CBP (1-111)): strongly competed away | mRNA c-myc (direction) (c-myc): ↑ | ΔCT c-myc (c-myc; 4 hours): −0.9 | ΔCT c-myc (c-myc; 8 hours): −2.4

From patent US7531320B2, “Modulation of β-catenin/TCF-activated transcription” (priority 2003, dated 2009)
